The test system of one data set is Pseudomonas aeruginosa. The data set can be described thus: Treatment with DOX-loaded grapefruit PMPs, kinetic OD 600 nm (P. aeruginosa). The class given is cell-based. The procedure:
(§1) Bacteria and yeast strains were maintained as indicated by the supplier: E. coli (ATCC, #25922) was grown on Trypticase Soy Agar/broth at 37° C., Pseudomonas aeruginosa (ATCC) was grown on Tryptic soy Agar/broth with […] rifampicin at 37° C., and Saccharomyces cerevisiae (ATCC, #9763) was grown on yeast extract peptone dextrose broth (YPD) and maintained at 30° C. Prior to treatment, fresh one day cultures were grown overnight, the OD (600 nm) was adjusted to 0.1 OD with medium prior to use, and bacteria/yeast were transferred to a 96 well plate for treatment (duplicate samples, 100 μl/well). […] Plates were covered with aluminum foil, and incubated at 37° C. (E. coli, P. aeruginosa), or 30° C. (S. cerevisiae) and agitated at 220 rpm.
(§2) A kinetic Absorbance measurement at 600 nm was performed on a SpectraMax® spectrophotometer to monitor the OD of the cultures at t=0h, t=1h, t=2h, t=3h, t=4.5h, t=16h (E. coli, P. aeruginosa) or t=0.5h, t=1.5h, t=2.5h, t=3.5h, t=4h, t=16h (S. cerevisiae). […] To compare the cytotoxic effect of PMP-DOX treatment on different bacterial and yeast strains, within each treatment group the relative OD was determined as compared to the untreated control (set to 100%).

The next data set relates to E. coli. The data set can be described thus: Treatment with DOX-loaded grapefruit PMPs, kinetic OD 600 nm (E. coli). The data set is classed as cell-based, Escherichia coli. The procedure: as §1, §2
For a further data set, the system named is Saccharomyces cerevisiae. The data set can be described thus: Treatment with DOX-loaded grapefruit PMPs, kinetic OD 600 nm (S. cerevisiae). The data set is classed as cell-based. As to the method:
as §1, §2

The structures appear in SMILES notation.

Take `COc1cccc2c1C(=O)c1c(O)c3c(c(O)c1C2=O)C[C@@](O)(C(=O)CO)C[C@@H]3O[C@H]1C[C@H](N)[C@H](O)[C@H](C)O1` [free doxorubicin, doxorubicin]: the “onset of cytotoxicity compared with PMP-DOX at the same dosages” value in the data set with Pseudomonas aeruginosa, in the data set with E. coli and in the data set with Saccharomyces cerevisiae was “cytotoxicity is induced earlier than with PMP-DOX delivery” throughout.

The values above are taken from patent US20210228736A1, “PATHOGEN CONTROL COMPOSITIONS AND USES THEREOF” (Flagship Pioneering Innovations VI, LLC, priority 2018, published 2021).
